Our source for the Kd values is publication PMC6381276 (mBio, 2019).

The target in the assay is McpN (PA2788) chemoreceptor (Pseudomonas aeruginosa, UniProt Q9I055). Put plainly: biochemical.
Sequence of McpN (PA2788) chemoreceptor (Q9I055 44-179): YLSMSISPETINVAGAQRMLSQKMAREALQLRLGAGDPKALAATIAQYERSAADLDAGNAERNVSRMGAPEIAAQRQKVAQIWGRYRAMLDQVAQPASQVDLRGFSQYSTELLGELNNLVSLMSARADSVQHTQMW

In turn, `O=[N+]([O-])O` [nitrate] registered a Kd of 47 ± 8 µM.
